The text below walks through data of the METLIN SMRT retention time set (Domingo-Almenara et al. 2019).

The nature of the data set: gradient 5% acetonitrile 3 min, to 50% in 2 min, to 85% in 15 min, held 3 min, 100 µL/min. Particulars: column: Zorbax Extend-C18 2.1 x 50 mm; eluents: water / acetonitrile, 0.1% formic acid. The essentials: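 Data were gathered over 3 months by HPLC coupled to a quadrupole time-of-flight mass spectrometer, operated in positive and negative ionization mode. Mixtures of ~100 pure standards ran on a Zorbax Extend-C18 column (2.1 × 50 mm, 1.8 μm) at 100 μL/min, with water and acetonitrile each containing 0.1% formic acid and dead and dwell volumes of 40 μL and 900 μL. Retention time was read from adduct peaks picked by computer and checked manually.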
`COCCCNC(=O)N1CCCN(C2=NS(=O)(=O)C(c3ccc(C)c(C)c3)=C2C)CC1` yielded an RP-LC retention time of 739 s.

In the case of `CCC1CCCCN1CCCNC(=O)c1c(N2CCCC2=O)c2cc(OC)ccc2n1C` (centres undefined), the RP-LC retention time came out at 638 s.

The compound `Cc1ccc(CN2CCN(CC(=O)Nc3ccc4c(c3)OCO4)C(=O)C2=O)cc1` gave an RP-LC retention time of 742 s.

Turning to `C[C@]12CCC3C(CC[C@H]4C[C@H](O)CC[C@]34C)C1CC[C@@H]2C(=O)CO` (some centres undefined), the RP-LC retention time amounted to 1020 s.

Compound `CCC(=O)N1CCc2cc(N3CC(C(=O)Nc4cccc(C(C)=O)c4)CC3=O)ccc21` (centres undefined) gave an RP-LC retention time of 696 s.

Regarding `Cc1ccn2cc(-c3ccc(NS(=O)(=O)c4ccc(F)cc4)cc3)nc2n1`, the RP-LC retention time was 649 s.

For `Cc1ccc(NC(=O)c2nc(C(C)C)oc2C)c(C)c1`, the RP-LC retention time was 1190 s.

The compound `CC(Oc1ccccc1)C(=O)N1CCC(c2cc(N)on2)CC1` (centres undefined) came in with an RP-LC retention time of 674 s.

Turning to `Cn1cc(-c2cc3n(n2)CCC(=O)N3CC(=O)NCCc2c[nH]c3ccccc23)c2ccccc21`, the RP-LC retention time was 825 s.

With `O=c1ccc(-c2cccc(Cl)c2)nn1CCc1nc(-c2ccc3c(c2)OCO3)no1`, the RP-LC retention time worked out at 999 s.

Take `O=C(Cn1c(=O)c2cc(C3CC3)nn2c2ncccc21)Nc1ccc(F)cc1F`: the RP-LC retention time was determined as 779 s.

Compound `COc1ccccc1NC(=O)CSc1ncc(S(=O)(=O)c2ccccc2)c(N)n1` showed an RP-LC retention time of 790 s.

As to `O=C(Oc1ccc(NC2=NS(=O)(=O)c3ccccc32)cc1)c1ccccc1`, the RP-LC retention time was found to be 935 s.

`Cc1cc2nn(CC(=O)Nc3cc(F)ccc3F)c(=O)n2c(Nc2ccc(F)c(C)c2)n1` gave an RP-LC retention time of 1100 s.

With `Clc1cccc(-c2nc3ccc(Cl)cn3c2Nc2ccc3c(c2)OCCO3)c1`, the RP-LC retention time was 939 s.

`Cc1cccc(N2CCN(c3ccc4cc(S(=O)(=O)N5CCCC5)ccc4n3)CC2)c1C` came in with an RP-LC retention time of 1150 s.

`CC(=O)c1ccc(NC(=O)CCSc2ccc(F)cc2)cc1` returned an RP-LC retention time of 835 s.

`N#Cc1c(NC(=O)c2cccnc2)sc2c1CCCCC2` registered an RP-LC retention time of 834 s.

With `Cc1ccc(Nc2c(-c3ccccc3)nc3ncccn23)c(C)c1`, the RP-LC retention time was determined as 786 s.

`Cc1ccc(N(C)S(=O)(=O)c2cc3n(c2)CCCNC3=O)cc1`: the RP-LC retention time stood at 663 s.

Turning to `Cc1ccc(-n2nc(N3CCCC(C(=O)Nc4cc(F)ccc4F)C3)ccc2=O)cc1Cl` (centres undefined), the RP-LC retention time was 1060 s.

With `CCOc1ccc(-c2[nH]ncc2CN)cc1`, the RP-LC retention time was found to be 575 s.

On to `O=C(C1=NN(Cc2ccccc2Cl)c2ccccc2S1(=O)=O)N1CCOCC1`, for which the RP-LC retention time stood at 873 s.

As for `Cc1oc(-c2[nH]ncc2C(=O)N2CCCC2)cc1S(=O)(=O)Nc1ccc(C(C)C)cc1`, the RP-LC retention time was found to be 835 s.

The compound `CCOc1cccc(CN2CCc3nc(N4CCN(c5ccccc5F)CC4)ncc3C2)c1` yielded an RP-LC retention time of 852 s.

As to `Cc1ccc2cc(CCC(=O)NCCCN3CCCCC3C)c(=O)[nH]c2c1` (centres undefined), the RP-LC retention time amounted to 590 s.

`Cc1ccc(NS(=O)(=O)c2cc(-c3cc(C(F)(F)F)on3)cs2)c(Br)c1` registered an RP-LC retention time of 1160 s.

Compound `CCOc1ccc(C(O)Cn2ccn3nc(-c4ccccc4C)cc3c2=O)cc1` (centres undefined) came in with an RP-LC retention time of 985 s.

`C/C(=C\c1csc(C)n1)C1C[C@@H]2O[C@@H]2CCC[C@H](C)[C@H](O)[C@@H](C)C(=O)C(C)(C)[C@@H](O)CC(=O)O1` (some centres undefined): the RP-LC retention time turned out to be 874 s.

Compound `O=C(Cn1cnc2c(sc3nc(-c4ccccc4)ccc32)c1=O)Nc1ccc(F)c(Cl)c1` had an RP-LC retention time of 1110 s.

`COc1cccc(Cn2cc(S(=O)(=O)N3CCCCCC3)ccc2=O)c1` had an RP-LC retention time of 895 s.

With `Cc1c(Cl)cccc1NC(=O)N1CCCC1c1nncn1-c1ccccc1` (centres undefined), the RP-LC retention time was 738 s.

`Cc1nc(-c2cc(S(=O)(=O)Nc3cccc(Cl)c3F)c(C)s2)cs1` showed an RP-LC retention time of 1030 s.

In the case of `CCn1cnc2cc(-c3noc(C4CC(=O)N(c5ccc(C)c(C)c5)C4)n3)ccc21` (centres undefined), the RP-LC retention time was found to be 734 s.

Take `Cc1cccc(NC(=O)C2CCN(S(=O)(=O)c3cc(C(=O)N4CCCC4)cs3)CC2)c1C`: the RP-LC retention time is 818 s.

`CCN1C(=O)Cc2cc(C(=O)NC3CCCCC3)ccc21` had an RP-LC retention time of 736 s.

Take `Cc1cc(-c2c(C)sc(C)c2S(=O)(=O)NC2CCCc3ccccc32)n[nH]1` (centres undefined): the RP-LC retention time came out at 1120 s.

As for `O=C(NC1CCCC1)N1CCC(OCc2ccccc2)C1` (centres undefined), the RP-LC retention time stood at 834 s.

For the compound `CCOc1ccc(Br)cc1CNc1ccc2[nH]c(=O)[nH]c2c1`, the RP-LC retention time was 668 s.

`O=C(Cc1cccs1)Nc1ccc(-c2nnc3n2CCCC3)cc1`: the RP-LC retention time stood at 640 s.

For the compound `O=S(=O)(c1ccccc1)N1CC(c2nc(-c3ccncc3)no2)C1`, the RP-LC retention time came out at 688 s.

Consider `O=C1Nc2ccccc2/C1=C\c1cnc[nH]1`, for which the RP-LC retention time turned out to be 617 s.

Turning to `CCn1cnc(S(=O)(=O)N2CCCC(C(=O)Nc3ccc(Br)c(C)c3)C2)c1` (centres undefined), the RP-LC retention time amounted to 889 s.

Consider `CN(Cc1cccnc1)C(=O)c1c(OCC2CC2)cc(=O)n2c1CCCCC2`, for which the RP-LC retention time amounted to 587 s.

The compound `O=C(NC1CC1)C1CCCN(C(=O)c2cc(-c3ccccn3)n[nH]2)C1` (centres undefined) yielded an RP-LC retention time of 577 s.

`NC(=O)c1cc(-c2ccccc2)sc1NC(=O)c1cc(Cl)sc1Cl`: the RP-LC retention time came out at 1180 s.

`Cc1ccc(S(=O)(=O)N2CCCC(c3nnc(COc4ccccc4)o3)C2)c(C)c1` (centres undefined) had an RP-LC retention time of 984 s.

`O=C(c1nnn(-c2ccccc2Cl)c1-c1ccncc1)N1CCCC1` returned an RP-LC retention time of 716 s.

For the compound `O=C(NC1CCCC1)N1CC(Oc2ccccc2-c2nc(-c3ccccc3)no2)C1`, the RP-LC retention time was found to be 1010 s.

`Cc1nc(N2CCOCC2)cc(N2CCN(C(=O)c3cccs3)CC2)n1` registered an RP-LC retention time of 607 s.

Consider `CCOC(=O)c1nc(NCC2CCN(Cc3ccccc3F)CC2)c2ccccc2n1`, for which the RP-LC retention time was determined as 598 s.

For `CCN1C(=O)CCc2cc(NC(=O)c3ccc(C)s3)ccc21`, the RP-LC retention time was 800 s.

In turn, `Nc1nc(N)nc(C2C=CCCC2)n1` (centres undefined) had an RP-LC retention time of 620 s.

`CCCCN(C)c1ncc(C(=O)Nc2ccccc2)c(N)n1`: the RP-LC retention time turned out to be 702 s.

On to `CCCOC(=O)C1=C(C)NC2=C(C(=O)C(C(=O)OC)C(C)C2)C1c1ccc(N(C)C)cc1` (centres undefined), for which the RP-LC retention time was determined as 668 s.

`CCCNC(=O)c1ccc(-c2ccnc(N3CCCCC3)n2)cc1` showed an RP-LC retention time of 905 s.

As to `CCOc1ccc(NC(=O)CNC(=O)C2CCCCC2)cc1`, the RP-LC retention time was 733 s.

The compound `O=C(CC(=O)c1ccccc1)Nc1ccc2c(c1)OCCO2` showed an RP-LC retention time of 769 s.

For the compound `CCC(=O)N1CCc2c(c(C(=O)N3CCC(C(=O)NCc4ccc(OC)cc4)CC3)nn2C)C1`, the RP-LC retention time amounted to 640 s.

With `Cc1noc(C)c1S(=O)(=O)N1CC(c2nc(CCOCc3ccccc3)no2)C1`, the RP-LC retention time was 979 s.

In turn, `CN1c2cc(F)ccc2C(=O)NC12CCN(C(=O)c1cc(F)cc(F)c1)CC2` yielded an RP-LC retention time of 793 s.

The compound `CC(CCc1ccccc1)NC(=O)c1cc2n(n1)CC(C)(C(=O)NC1CCCC1)N(C)C2=O` (centres undefined) came in with an RP-LC retention time of 844 s.

Consider `Cc1noc(C)c1CCNC(=O)C1CCCN(c2nc3ccccc3n(Cc3ccccc3)c2=O)C1` (centres undefined), for which the RP-LC retention time worked out at 974 s.

Consider `COc1cc2nc(C(=O)N3CCCCC3)cc(Nc3cccc(C(F)(F)F)c3)c2cc1OC`, for which the RP-LC retention time stood at 752 s.

For `Cc1ccc(-c2csc(NC(=O)CCc3nc(CSc4nc5cc(C)ccc5o4)no3)n2)cc1`, the RP-LC retention time was 1210 s.

The compound `CCCCC(=O)Nc1cnc(N(CC)CC(=O)C(C)(C)C)c(C(=O)O)c1` displayed an RP-LC retention time of 628 s.

Regarding `Cc1ccc(-c2cn3ccn(-c4ccc(F)cc4)c(=O)c3n2)c(C)c1`, the RP-LC retention time was 873 s.

In turn, `Cc1nc(COc2ccccc2)sc1C(=O)NCCN(C)C` displayed an RP-LC retention time of 611 s.

`O=C(Nc1ccccc1)N1CCN(c2ncccc2-c2nnc(C3CC3)o2)CC1` came in with an RP-LC retention time of 750 s.

Compound `COc1ccc(NC(=O)N2CCC3(CC2)NC(=O)c2ccccc2N3C)c(OC)c1` came in with an RP-LC retention time of 649 s.

In the case of `CCOC(=O)CC1C(=O)NCCN1C(=O)COc1ccc(Br)cc1C` (centres undefined), the RP-LC retention time was 797 s.

`Cc1nc(-c2cc(S(=O)(=O)Nc3cccc(F)c3)c(C)s2)sc1C`: the RP-LC retention time amounted to 1060 s.

`CCCc1cc(C2CCCN2C(=O)Nc2ccc(OC)c(OC)c2)no1` (centres undefined) showed an RP-LC retention time of 778 s.

The compound `Cc1c(C(=O)N2CCC(C)CC2)cnn1-c1ccc(-c2nc(C(C)(C)C)no2)cn1` had an RP-LC retention time of 1250 s.

For `Cc1ccc(-c2ccc(=O)n(Cc3noc(C(=O)N4CCC(C)CC4)n3)n2)cc1`, the RP-LC retention time turned out to be 977 s.

In the case of `O=C1NCN(c2ccccc2)C12CCN(CCCC(c1ccc(F)cc1)c1ccc(F)cc1)CC2`, the RP-LC retention time was 892 s.

In the case of `CC(C)C(C(=O)O)N1C(=O)c2cccc3cccc(c23)C1=O` (centres undefined), the RP-LC retention time is 795 s.

Compound `COc1ccc(N2CC(c3nc(-c4cccc(C(F)(F)F)c4)no3)CC2=O)cc1OC` (centres undefined) returned an RP-LC retention time of 966 s.

In turn, `c1ccc(-c2nc3ncc4c(n3n2)CCC4)cc1` displayed an RP-LC retention time of 756 s.
